Activity calls are given as the source filed them. No cut-off for these calls is given here.

Common to all, as to format: cell-based
Test [1] concerns the target Sodium-dependent serotonin transporter (Homo sapiens) (UniProt P31645). Description: Modulation of human SERT expressed in HEK293 cells at 0.1 uM using APP+ as substrate by fluorescence assay relative to control.
Test [2] shares this target. Description: Modulation of human SERT expressed in HEK293 cells at 1 uM using APP+ as substrate by fluorescence assay relative to control.
Test [3] shares this target. Description: Modulation of human SERT expressed in HEK293 cells at 10 uM using APP+ as substrate by fluorescence assay relative to control.

Chain of Sodium-dependent serotonin transporter (Homo sapiens) (P31645 whole entry, looked up): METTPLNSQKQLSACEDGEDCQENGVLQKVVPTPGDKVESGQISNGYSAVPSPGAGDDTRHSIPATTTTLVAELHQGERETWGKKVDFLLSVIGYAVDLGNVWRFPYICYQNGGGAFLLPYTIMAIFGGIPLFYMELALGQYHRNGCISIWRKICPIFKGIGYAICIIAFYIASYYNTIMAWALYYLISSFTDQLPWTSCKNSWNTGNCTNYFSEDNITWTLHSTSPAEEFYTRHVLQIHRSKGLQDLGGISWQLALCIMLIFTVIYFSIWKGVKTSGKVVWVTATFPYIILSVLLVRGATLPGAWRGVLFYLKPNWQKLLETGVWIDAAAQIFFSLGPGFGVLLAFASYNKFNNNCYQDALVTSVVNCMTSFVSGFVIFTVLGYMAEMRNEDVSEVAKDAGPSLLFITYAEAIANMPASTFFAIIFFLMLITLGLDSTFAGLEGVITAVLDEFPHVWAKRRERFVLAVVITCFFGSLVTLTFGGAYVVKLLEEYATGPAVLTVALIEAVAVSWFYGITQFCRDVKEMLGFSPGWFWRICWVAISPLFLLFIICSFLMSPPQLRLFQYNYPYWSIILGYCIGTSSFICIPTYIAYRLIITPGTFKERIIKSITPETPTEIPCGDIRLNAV

As to `COC(=O)C1=CO[C@@H](O[C@@H]2O[C@H](CO)[C@@H](O)[C@H](O)[C@H]2O)[C@H]2[C@@H](COC(C)=O)CC[C@H]12`, the fold change (FC) was found to be 0.965 in test [1], 1.07 in test [2] and 0.989 in test [3].
On the same counts, the results for `CC(C)CC(=O)O[C@@H]1OC=C(CO[C@@H]2O[C@H](CO)[C@@H](O)[C@H](O)[C@H]2O)C2C[C@H](O)[C@@H](CO)C21` (stereo not given in full) are 0.975, 0.981 and 0.933.
For `C/C1=C\CC[C@@H](C)CCO[C@@H]2O[C@H](CO[C@@H]3OC[C@](O)(COC1=O)[C@H]3O)[C@@H](O)[C@H](O)[C@H]2O` the same measures were 1.04, 1.08 and 1.06.
For `COC1=CC(C)(C)c2cc(OC)c(C)cc2C1=O` the same measures were 0.956, 1 and 0.942.
With `CC(C)CC(=O)OCC1=CO[C@@H](OC(=O)CC(C)C)C2C1CC(=O)[C@H]2C` (stereo not given in full), the outcome in test [1], in test [2] and in test [3] was inactive.
In the case of `COC1=CC(C)(C)c2cc(OC)c(C)c(OC)c2C1=O`, the fold change (FC) came out at 1.07 in test [1], 1.05 in test [2] and 1.05 in test [3].
On to `C[C@H]1CC[C@@H]2C(C(=O)O)=CO[C@@H](O[C@@H]3O[C@H](CO)[C@@H](O)[C@H](O)[C@H]3O)[C@H]21`, for which the fold change (FC) in test [1] amounted to 1.05; in test [2], 1.08; in test [3], 1.07.
For the compound `CC(=O)OC[C@H]1O[C@@H](OCC2=CO[C@@H](OC(=O)CC(C)C)C3C2C[C@H](O)[C@H]3CO)[C@H](O)[C@H](O)[C@@H]1O` (stereo not given in full), the result in test [1], in test [2] and in test [3] was inactive.
In the case of `COC(=O)C1=CO[C@@H](O[C@@H]2O[C@H](CO)[C@@H](O)[C@H](O)[C@H]2O)[C@H]2[C@@H](CO)CC[C@H]12`, the result in test [1], in test [2] and in test [3] was inactive.
Turning to `CN1c2ccccc2C(NCCCCCCC(=O)O)c2ccc(Cl)cc2S1(=O)=O` (stereo not given), the fold change (FC) in test [2] came out at 1.18.
With `CC(=O)/C=C/C1=C(C)CCCC1(C)C`, the values for the fold change (FC) in test [1], in test [2] and in test [3] were 0.989, 1.07 and 1.01, respectively.
On the same counts, the results for `CC(=O)CC/C=C(C)/C=C/[C@H]1C(C)=CC(=O)CC1(C)C` are 1.06, 1.07 and 1.1.
For `CC(=O)/C=C/C1(O)C(C)(C)CCCC1(C)O` (stereo not given) the same measures were 0.934, 1.07 and 1.09.
For `CC1=CC(=O)CC(C)(C)[C@@H]1CC[C@@H](C)OC(=O)CC(C)C` the same measures were 1.03, 1.05 and 1.07.

The record behind these values is ChEMBL document CHEMBL4000236, “Nardonaphthalenones A and B from the roots and rhizomes of Nardostachys chinensis Batal” (Bioorg Med Chem Lett, 2017).
